Results reported in US7714132B2, “Tetrahydropyridoindole derivatives” (Actelion Pharmaceuticals, Ltd., priority 2004, dated 2010).

biological target: T1, hCRTH2 receptor (Homo sapiens, UniProt Q9Y5Y4); test: Intracellular calcium mobilization assay (FLIPR), antagonism of prostaglandin D2; format: cell-based; conditions: HEK-293 cells stably expressing hCRTH2; agonist prostaglandin D2 10 nM final; read-out: FLIPR CRTH2 IC50
T1 construct: expressed in transfected cells
T1 sequence (Q9Y5Y4 1-395): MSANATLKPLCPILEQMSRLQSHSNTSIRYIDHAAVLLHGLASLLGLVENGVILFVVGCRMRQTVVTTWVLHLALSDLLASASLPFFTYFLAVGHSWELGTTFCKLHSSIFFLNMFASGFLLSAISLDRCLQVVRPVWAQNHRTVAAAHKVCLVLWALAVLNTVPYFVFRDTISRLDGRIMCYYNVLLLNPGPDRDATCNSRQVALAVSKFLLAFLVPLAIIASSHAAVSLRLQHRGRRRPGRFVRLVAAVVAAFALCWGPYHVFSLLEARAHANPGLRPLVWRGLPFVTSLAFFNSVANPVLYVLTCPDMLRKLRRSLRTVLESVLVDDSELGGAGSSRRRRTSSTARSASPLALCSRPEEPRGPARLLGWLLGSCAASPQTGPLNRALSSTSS
Method: Intracellular Calcium Mobilization Assay (FLIPR):
Cells (HEK-293), stably expressing the hCRTH2 receptor under the control of the cytomegalovirus promotor from a single insertion of the expression vector pcDNA5 (Invitrogen), are grown to confluency in DMEM (low glucose, Gibco) medium supplemented with 10% fetal calf serum (both Bioconcept, Switzerland) under standard mammalian cell culture conditions (37° C. in a humidified atmosphere of 5% CO2). Cells are detached from culture dishes using a dissociation buffer (0.02% EDTA in PBS, Gibco) for 1 min, and collected by centrifugation at 200 g at rt for 5 min in assay buffer [equal parts of Hank's BSS (HBSS, Bioconcept) and DMEM (low glucose, without phenol red, Gibco)]. After incubation for 45 min (37° C. and 5% CO2) in the presence of 1 μM Fluo-4 and 0.04% Pluronic F-127 (both Molecular Probes), 20 mM HEPES (Gibco) in assay buffer, the cells are washed with and resuspended in assay buffer, then seeded onto 3 84-welt FLIPR assay plates (Greiner) at 50,000 cells in 66 μl per well, and sedimented by centrifugation.
Stock solutions of test compounds are made up at a concentration of 10 mM in DMSO, and serially diluted in assay buffer to concentrations required for inhibition dose response curves. Prostaglandin D2 (Biomol, Plymouth Meeting, Pa.) is used as an agonist.
A FLIPR384 instrument (Molecular Devices) is operated according to the manufacturer's standard instructions, adding 4 μl of test compound dissolved at 10 mM in DMSO and diluted prior to the experiment in assay buffer to obtain the desired final concentration. 10 μl of 80 nM prostaglandin D2 (Biomol, Plymouth Meeting, Pa.) in assay buffer, supplemented with 0.8% bovine serum albumin (fatty acid content<0.02%, Sigma), is then added to obtain a final concentration of 10 nM and 0.1%, respectively. Changes in fluorescence are monitored before and after the addition of test compounds at λex=488 nm and λem=540 nm. Emission peak values above base level after prostaglandin D2 addition are exported after base line subtraction. Values are normalized to high-level control (no test compound added) after subtraction of base line value (no prostaglandin D2 added). The program XLlfit 3.0 (IDBS) is used to fit the data to a single site dose response curve of the equation (A+((B−A)/(1+((C/x)^D)))) and to calculate the IC50 values.

| Structure (SMILES) | IC50 [nM] |
| --- | --- |
| Cc1cccc(C(=O)N2CCc3c(c4cc(Br)ccc4n3CC(=O)O)C2)c1Br [[8-bromo-2-(2-bromo-3-methyl-benzoyl)-1,2,3,4-tetrahydro-pyrido[4,3-b]indol-5-yl]-acetic acid] | 15 |
| O=C(O)Cn1c2c(c3cc(Cl)ccc31)CN(C(=O)c1cccs1)CC2 [[8-chloro-2-(thiophene-2-carbonyl)-1,2,3,4-tetrahydro-pyrido[4,3-b]indol-5-yl]-acetic acid] | 50 |
| O=C(O)Cn1c2c(c3ccccc31)CN(C(=O)c1cccc3[nH]ccc13)CC2 [[2-(1H-indole-4-carbonyl)-1,2,3,4-tetrahydro-pyrido[4,3-b]indol-5-yl]-acetic acid] | 19 |
| O=C(O)Cn1c2c(c3ccccc31)CN(C(=O)c1cccc(Cl)c1)CC2 [[2-(3-chloro-benzoyl)-1,2,3,4-tetrahydro-pyrido[4,3-b]indol-5-yl]-acetic acid] | 174 |
| COc1cc(C(=O)N2CCc3c(c4ccccc4n3CC(=O)O)C2)cc(OC)c1OC [[2-(3,4,5-trimethoxy-benzoyl)-1,2,3,4-tetrahydro-pyrido[4,3-b]indol-5-yl]-acetic acid] | 91 |
| CC(C)(C)OC(=O)N1CCc2c(c3cc(F)ccc3n2CC(=O)O)C1 [5-carboxymethyl-8-fluoro-1,3,4,5-tetrahydro-pyrido[4,3-b]indole-2-carboxylic acid tert-butyl ester] | 22 |
| COc1ccc2ccccc2c1C(=O)N1CCc2c(c3cc(Cl)ccc3n2CC(=O)O)C1 [[8-chloro-2-(2-methoxy-naphthalene-1-carbonyl)-1,2,3,4-tetrahydro-pyrido[4,3-b]indol-5-yl]-acetic acid] | 3 |
| O=C(O)Cn1c2c(c3ccccc31)CN(C(=O)c1ccc(Br)cc1)CC2 [[2-(4-bromo-benzoyl)-1,2,3,4-tetrahydro-pyrido[4,3-b]indol-5-yl]-acetic acid] | 83 |
| O=C(O)Cn1c2c(c3ccccc31)CN(C(=O)c1ccco1)CC2 [[2-(furan-2-carbonyl)-1,2,3,4-tetrahydro-pyrido[4,3-b]indol-5-yl]-acetic acid] | 88 |

biological target: T1, hCRTH2 receptor; test: CRTH2 membranes radioligand binding assay ({3H}-PGD2); conditions: membranes of HEK 293 cells expressing recombinant hCRTH2; {3H}-PGD2 2.5 nM; 90 min
Method: Biological Assay: Preparation of CRTH2 Membranes and Radioligand Binding Assay:
Preparation of the membranes and radioligand binding assays are performed according to known procedures, e.g. Sawyer N. et al. (Br. J. Pharmacol., 2002, 137, 1163-1172). A clonal HEK 293 cell line, expressing high level of recombinant hCRTH2 receptor, is selected for the preparation of membranes. Cells are detached from culture plates in 5 ml buffer A per plate (5 mM Tris, 1 mM MgCl2x6 H2O, 0.1 mM PMSF, 0.1 mM phenanthroline) using a police rubber and transferred into centrifugation tubes and frozen at −80° C. After thawing, the cells are centrifuged at 500 g for 5 min and then resuspended in buffer A. Cells are then fragmented by homogeinization with a Polytron homogenizer for 30 s. The membrane fragments are centrifuged at 3000 g for 40 min and resuspended in membranes in buffer B (50 mM Tris, 25 mM MgCl2, 250 mM saccharose, pH 7.4) and aliquots are stored frozen.
Binding assay is performed in a total volume of 250 μl. In each well, 75 μl buffer C (50 mM Tris, 100 mM NaCl, 1 mM EDTA, 0.1% B SA (protease free), 0.01% NaN3, pH 7.4) is mixed with 50 μl {^3H}-PGD2 (at 2.5 nM (220.000 dpm per well) from Amersham, TRK734), 100 μl CRTH2 membranes to give 80 μg per well and 25 μl of test compound in buffer C containing 1% DMSO. For unspecific binding, PGD2 is added to the reaction mixture at 1 μM final concentration. This binding assay mix is incubated at it for 90 min and then filtered through a GF/C filter plate. The filter is washed three times with ice cold binding buffer. Then, 40 μl per well Microscint-40 (Packard) are added and the bound radioactivity is quantified by means of Topcourt (Packard).

| Structure (SMILES) | IC50 [nM] |
| --- | --- |
| O=C(O)Cn1c2c(c3ccccc31)CN(C(=O)c1cccc3c(Br)cccc13)CC2 [[2-(5-bromo-naphthalene-1-carbonyl)-1,2,3,4-tetrahydro-pyrido[4,3-b]indol-5-yl]-acetic acid] | 12 |
| Cc1cccc(C(=O)N2CCc3c(c4ccccc4n3CC(=O)O)C2)c1Br [[2-(2-bromo-3-methyl-benzoyl)-1,2,3,4-tetrahydro-pyrido[4,3-b]indol-5-yl]-acetic acid] | 14 |
| O=C(O)Cn1c2c(c3cc(Br)ccc31)CN(C(=O)c1cccs1)CC2 [[8-bromo-2-(thiophene-2-carbonyl)-1,2,3,4-tetrahydro-pyrido[4,3-b]indol-5-yl]-acetic acid] | 4 |
| O=C(O)Cn1c2c(c3cc(C(F)(F)F)ccc31)CN(C(=O)c1ccccc1)CC2 [(2-benzoyl-8-trifluoromethyl-1,2,3,4-tetrahydro-pyrido[4,3-b]indol-5-yl)-acetic acid] | 1 |
| O=C(O)Cn1c2c(c3ccccc31)CN(C(=O)c1cccc(Cl)c1)CC2 [[2-(3-chloro-benzoyl)-1,2,3,4-tetrahydro-pyrido[4,3-b]indol-5-yl]-acetic acid] | 15 |
| O=C(O)Cn1c2c(c3cc(F)ccc31)CN(C(=O)Cc1cccc3ccccc13)CC2 [[8-fluoro-2-(2-naphthalen-1-yl-acetyl)-1,2,3,4-tetrahydro-pyrido[4,3-b]indol-5-yl]-acetic acid] | 3 |
| CCc1ccc(-c2ccc(C(=O)N3CCc4c(c5ccccc5n4CC(=O)O)C3)cc2)cc1 [[2-(4′-ethyl-biphenyl-4-carbonyl)-1,2,3,4-tetrahydro-pyrido[4,3-b]indol-5-yl]-acetic acid] | 7 |
| CCc1ccc(-c2ccc(C(=O)N3CCc4c(c5cc(F)ccc5n4CC(=O)O)C3)cc2)cc1 [[2-(4′-ethyl-biphenyl-4-carbonyl)-8-fluoro-1,2,3,4-tetrahydro-pyrido[4,3-b]indol-5-yl]-acetic acid] | 1 |
